Our source for the Binding % values is patent US10646488B2 (Araxes Pharma LLC, priority 2016, dated 2020).

This experiment addresses T1, KRAS G12C 1-169, his-tagged protein, GDP-loaded (Homo sapiens, UniProt P01116, G12C).
T1 construct: KRAS G12C 1-169, his-tagged protein, GDP-loaded
As to the kind of experiment: Covalent binding (% modification) to KRAS G12C by mass spectrometry. Further: test concentration or dose not given here. Particulars: covalent binding to KRAS G12C after a three minute incubation period.

Turning to `C=CC(=O)N1C[C@@H](C)N(c2nc(N3CC(N(C)C)C3)nc3c(F)c(-c4c(O)cccc4F)c(Cl)cc23)C[C@H]1C` [Compound 86, 1-((2R,5R)-4-(6-chloro-2-(3-(dimethylamino)azetidin-1-yl)-8-fluoro-7-(2-fluoro-6-hydroxyphenyl)quinazolin-4-yl)-2,5-dimethyl-piperazin-1-yl) prop-2-en-1-one], the Binding % entry was “+ (+ indicates binding activity greater than 0% and up to 50%)”.

As for `C=CC(=O)N1C[C@@H](C)N(c2nc(N3CC(N(C)C)C3)nc3c(F)c(-c4c(O)cccc4F)c(Cl)cc23)C[C@@H]1C` [Compound 87, 1-((2S,5R)-4-(6-chloro-2-(3-(dimethylamino)azetidin-1-yl)-8-fluoro-7-(2-fluoro-6-hydroxyphenyl)quinazolin-4-yl)-2,5-dimethyl-piperazin-1-yl) prop-2-en-1-one], the Binding % result is “+ (+ indicates binding activity greater than 0% and up to 50%)”.

Consider `C=CC(=O)N1CCN(c2nc(N3CC(N(C)C)C3)nc3c(F)c(-c4c(O)cccc4F)c(Cl)cc23)C[C@@H]1C` [Compound 88, 1-((2S)-4-(6-chloro-2-(3-(dimethylamino)azetidin-1-yl)-8-fluoro-7-(2-fluoro-6-hydroxyphenyl)quinazolin-4-yl)-2-methyl-piperazin-1-yl) prop-2-en-1-one], for which the Binding % result was “+ (+ indicates binding activity greater than 0% and up to 50%)”.

For the compound `C=CC(=O)N1CCN(c2nc(CN(C)Cc3ncccn3)nc3c(F)c(-c4c(O)cccc4F)c(Cl)cc23)C[C@H]1C` [Compound 91, 1-((2R)-4-(6-chloro-8-fluoro-7-(2-fluoro-6-hydroxyphenyl)-2-((methyl (pyrimidin-2-yl-methyl)amino)methyl)quinazolin-4-yl)-2-methyl-piperazin-1-yl) prop-2-en-1-one], the Binding % result was “+ (+ indicates binding activity greater than 0% and up to 50%)”.

With `C=CC(=O)N1C[C@H](C)N(c2nc(N3CC(N)C3)nc3c(F)c(-c4c(O)cccc4F)c(Cl)cc23)C[C@H]1C` [Compound 92], the Binding % entry is “++ (++ indicates binding activity from 50 to 90%)”.

`C#CCN(C)C1CN(c2nc(N3C[C@@H](C)N(C(=O)C=C)C[C@@H]3C)c3cc(Cl)c(-c4c(O)cccc4F)c(F)c3n2)C1` [Compound 93, 1-((2R,5S)-4-(6-chloro-8-fluoro-7-(2-fluoro-6-hydroxyphenyl)-2-(3-(methyl (prop-2-yn-1-yl)amino)azetidin-1-yl)quinazolin-4-yl)-2,5-dimethyl-piperazin-1-yl) prop-2-en-1-one]: the Binding % entry is recorded as “++ (++ indicates binding activity from 50 to 90%)”.

Consider `C=CC(=O)N1C[C@H](C)N(c2nc(N3CC(N(C)C)C3)nc3c(F)c(-c4c(O)cccc4F)c(Cl)cc23)C[C@@H]1C` [Compound 94, 1-((2S,5S)-4-(6-chloro-2-(3-(dimethylamino)azetidin-1-yl)-8-fluoro-7-(2-fluoro-6-hydroxyphenyl)quinazolin-4-yl)-2,5-dimethyl-piperazin-1-yl) prop-2-en-1-one], for which the Binding % result was “+ (+ indicates binding activity greater than 0% and up to 50%)”.

With `C=CC(=O)N1CCN(c2nc(CNCc3ncccn3)nc3c(F)c(-c4c(O)cccc4F)c(Cl)cc23)C[C@H]1C` [Compound 95, 1-((2R)-4-(6-chloro-8-fluoro-7-(2-fluoro-6-hydroxyphenyl)-2-(((pyrimidin-2-ylmethyl)amino)methyl)quinazolin-4-yl)-2-methyl-piperazin-1-yl) prop-2-en-1-one], the Binding % entry is “++ (++ indicates binding activity from 50 to 90%)”.

As for `C=CC(=O)N1C[C@H](C)N(c2nc(N3CC(NC)C3)nc3c(F)c(-c4c(O)cccc4F)c(Cl)cc23)C[C@H]1C` [Compound 96, 1-((2R,5S)-4-(6-chloro-8-fluoro-7-(2-fluoro-6-hydroxyphenyl)-2-(3-(methylamino)azetidin-1-yl)quinazolin-4-yl)-2,5-dimethyl-piperazin-1-yl) prop-2-en-1-one], the Binding % entry is listed as “+++ (+++ indicates binding activity greater than 90%)”.

In the case of `C=CC(=O)N1C[C@H](C)N(c2nc(N3CC(N)C3)nc3c(F)c(-c4c(C)ccc5cn[nH]c45)c(Cl)cc23)C[C@H]1C` [Compound 97, 1-((2R,5S)-4-(2-(3-aminoazetidin-1-yl)-6-chloro-8-fluoro-7-(6-methyl-1H-indazol-7-yl)quinazolin-4-yl)-2,5-dimethyl-piperazin-1-yl) prop-2-en-1-one], the Binding % entry is recorded as “++ (++ indicates binding activity from 50 to 90%)”.

Regarding `C=CC(=O)N1C[C@H](C)N(c2nc(N3CC(N(C)CC)C3)nc3c(F)c(-c4c(O)cccc4F)c(Cl)cc23)C[C@H]1C` [Compound 98, 1-((2R,5S)-4-(6-chloro-2-(3-(ethyl(methyl)amino)azetidin-1-yl)-8-fluoro-7-(2-fluoro-6-hydroxyphenyl)quinazolin-4-yl)-2,5-dimethyl-piperazin-1-yl) prop-2-en-1-one], the Binding % entry is listed as “++ (++ indicates binding activity from 50 to 90%)”.

As to `C=CC(=O)N1C[C@H](C)N(c2nc(N3CC(N(C)C(C)C)C3)nc3c(F)c(-c4c(O)cccc4F)c(Cl)cc23)C[C@H]1C` [Compound 99, 1-((2R,5S)-4-(6-chloro-8-fluoro-7-(2-fluoro-6-hydroxyphenyl)-2-(3-(isopropyl (methyl)amino)azetidin-1-yl)quinazolin-4-yl)-2,5-dimethyl-piperazin-1-yl) prop-2-en-1-one], the Binding % entry is on record as “++ (++ indicates binding activity from 50 to 90%)”.

Take `C=CC(=O)N1C[C@H](C)N(c2nc(N3CC(NC)C3)nc3c(F)c(-c4c(C)ccc5cn[nH]c45)c(Cl)cc23)C[C@H]1C` [Compound 100, 1-((2R,5S)-4-(6-chloro-8-fluoro-7-(6-methyl-1H-indazol-7-yl)-2-(3-(methylamino)azetidin-1-yl)quinazolin-4-yl)-2,5-dimethyl-piperazin-1-yl) prop-2-en-1-one]: the Binding % result is “++ (++ indicates binding activity from 50 to 90%)”.

On to `CC(C)/C=C(\C#N)C(=O)N1C[C@H](C)N(c2nc(N3CC(N(C)C)C3)nc3c(F)c(-c4c(O)cccc4F)c(Cl)cc23)C[C@H]1C` [Compound 101, (E)-2-((2R,5S)-4-(6-chloro-2-(3-(dimethylamino)azetidin-1-yl)-8-fluoro-7-(2-fluoro-6-hydroxyphenyl)quinazolin-4-yl)-2,5-dimethyl-piperazine-1-carbonyl)-4-methylpent-2-enenitrile], for which the Binding % entry was “+ (+ indicates binding activity greater than 0% and up to 50%)”.

`C=CC(=O)N1C[C@H](C)N(c2nc(N3CC(N(C)CC)C3)nc3c(F)c(-c4c(O)cccc4F)c(Cl)cc23)C[C@H]1C` [Compound 102, 1-((2R,5S)-4-(6-chloro-2-(3-(ethyl(methyl)amino)azetidin-1-yl)-8-fluoro-7-(2-fluoro-6-hydroxyphenyl)quinazolin-4-yl)-2,5-dimethyl-piperazin-1-yl) prop-2-en-1-one]: the Binding % result is listed as “++ (++ indicates binding activity from 50 to 90%)”.

As to `C=CC(=O)N1C[C@H](C)N(c2nc(N3CC(N4CCC(F)(F)C4)C3)nc3c(F)c(-c4c(O)cccc4F)c(Cl)cc23)C[C@H]1C` [Compound 103, 1-((2R,5S)-4-(6-chloro-2-(3-(3,3-difluoro-pyrrolidin-1-yl)azetidin-1-yl)-8-fluoro-7-(2-fluoro-6-hydroxyphenyl)quinazolin-4-yl)-2,5-dimethyl-piperazin-1-yl) prop-2-en-1-one], the Binding % result is “+ (+ indicates binding activity greater than 0% and up to 50%)”.

As to `C=CC(=O)N1C[C@H](C)N(c2nc(N3CC(C)(N(C)C)C3)nc3c(F)c(-c4c(O)cccc4F)c(Cl)cc23)C[C@H]1C` [Compound 104, 1-((2R,5S)-4-(6-chloro-2-(3-(dimethylamino)-3-methylazetidin-1-yl)-8-fluoro-7-(2-fluoro-6-hydroxyphenyl)quinazolin-4-yl)-2,5-dimethyl-piperazin-1-yl) prop-2-en-1-one], the Binding % entry was “+++ (+++ indicates binding activity greater than 90%)”.

As to `C=CC(=O)N1C[C@H](C)N(c2nc(N3CC(N(CC)C4CC4)C3)nc3c(F)c(-c4c(O)cccc4F)c(Cl)cc23)C[C@H]1C` [Compound 105, 1-((2R,5S)-4-(6-chloro-2-(3-(cyclopropyl (ethyl)amino)azetidin-1-yl)-8-fluoro-7-(2-fluoro-6-hydroxyphenyl)quinazolin-4-yl)-2,5-dimethyl-piperazin-1-yl) prop-2-en-1-one], the Binding % entry is reported as “++ (++ indicates binding activity from 50 to 90%)”.

For the compound `C=CC(=O)N1C[C@H](C)N(c2nc(N3CC(N(C)C4CC4)C3)nc3c(F)c(-c4c(O)cccc4F)c(Cl)cc23)C[C@H]1C` [Compound 106, 1-((2R,5S)-4-(6-chloro-2-(3-(cyclopropyl (methyl)amino)azetidin-1-yl)-8-fluoro-7-(2-fluoro-6-hydroxyphenyl)quinazolin-4-yl)-2,5-dimethyl-piperazin-1-yl) prop-2-en-1-one], the Binding % result is “++ (++ indicates binding activity from 50 to 90%)”.

As to `C=CC(=O)N1C[C@H](C)N(c2nc(N3CC(N(C)CC(F)F)C3)nc3c(F)c(-c4c(O)cccc4F)c(Cl)cc23)C[C@H]1C` [Compound 107, 1-((2R,5S)-4-(6-chloro-2-(3-((2,2-difluoroethyl) (methyl)amino)azetidin-1-yl)-8-fluoro-7-(2-fluoro-6-hydroxyphenyl)quinazolin-4-yl)-2,5-dimethyl-piperazin-1-yl) prop-2-en-1-one], the Binding % entry is reported as “++ (++ indicates binding activity from 50 to 90%)”.

On to `C=CC(=O)N1C[C@H](C)N(c2nc(N3CC(N(C)C4CCC4)C3)nc3c(F)c(-c4c(O)cccc4F)c(Cl)cc23)C[C@H]1C` [Compound 110, 1-((2R,5S)-4-(6-chloro-2-(3-(cyclobutyl (methyl)amino)azetidin-1-yl)-8-fluoro-7-(2-fluoro-6-hydroxyphenyl)quinazolin-4-yl)-2,5-dimethyl-piperazin-1-yl) prop-2-en-1-one], for which the Binding % entry is given as “++ (++ indicates binding activity from 50 to 90%)”.
